The numbers were not newly measured in patent US9907754B2 (VECTURA LIMITED, priority 2013, dated 2018), which cites them from elsewhere.

A value given as a limit tells only on which side of the number the result lay.

The conditions of data set [1]: henderson-hasselbalch (1908).
For data set [2] the following is noted: EFSA; no indications of inhalation toxicity or intolerability.

In the case of `OC[C@@H](O)[C@@H](O)[C@H](O)[C@H](O)CO` [Mannitol], the “water pick up, % of mass” value (humidity >70% RH) is listed as 10%. Also, for the setting “relative humidity as high as 70%”, the moisture pick up entry was “less than 1%”.

With `NCCS(=O)(=O)O` [Taurine, 2-aminoethanesulfonic acid], the “pKa of the sulphur-hydryl group” value in data set [1] was 1.49. In addition, the tolerable dose in data set [2] is more than 1000 mg/kg/day.
